The values below are quoted from earlier work in patent US8778892B2, “Compounds and methods for treatment of solid tumors” (B & G Partners, LLC, priority 2008, dated 2014).

The target in this data set is CD44 (Homo sapiens, UniProt P16070). The note with it: intact cells.
CD44, sequence (P16070 21-742, species assumed): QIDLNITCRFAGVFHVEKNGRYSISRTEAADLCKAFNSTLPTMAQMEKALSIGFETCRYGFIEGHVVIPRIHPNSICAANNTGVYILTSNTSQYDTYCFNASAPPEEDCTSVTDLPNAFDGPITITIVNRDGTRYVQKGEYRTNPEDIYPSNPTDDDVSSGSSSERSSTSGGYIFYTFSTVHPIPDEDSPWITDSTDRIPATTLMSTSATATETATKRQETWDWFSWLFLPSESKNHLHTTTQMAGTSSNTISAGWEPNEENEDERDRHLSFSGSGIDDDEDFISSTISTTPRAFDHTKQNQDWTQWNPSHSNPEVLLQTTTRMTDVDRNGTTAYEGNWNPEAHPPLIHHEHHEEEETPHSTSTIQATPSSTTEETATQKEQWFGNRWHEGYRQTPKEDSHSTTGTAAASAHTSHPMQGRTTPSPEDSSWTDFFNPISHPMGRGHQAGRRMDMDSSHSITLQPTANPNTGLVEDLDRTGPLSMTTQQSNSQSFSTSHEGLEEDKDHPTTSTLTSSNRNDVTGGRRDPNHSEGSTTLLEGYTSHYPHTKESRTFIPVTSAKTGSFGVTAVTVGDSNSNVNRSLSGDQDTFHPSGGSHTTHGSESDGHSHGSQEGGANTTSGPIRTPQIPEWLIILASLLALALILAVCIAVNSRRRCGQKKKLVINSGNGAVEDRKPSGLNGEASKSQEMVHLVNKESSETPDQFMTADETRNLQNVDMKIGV

As to chondroitin sulfate, the “capacity to compete with hyaluronan for binding” value is “little capacity to compete”. In the case of heparan sulfate, the “capacity to compete with hyaluronan for binding” value is given as “little capacity to compete”.
